Data: ChEMBL document CHEMBL1287753, “Synthesis of all-cis 2,5-imino-2,5-dideoxy-fucitol and its evaluation as a potent fucosidase and galactosidase inhibitor” (Bioorg Med Chem Lett, 2010)
pIC50, pKi: −log10 of the molar value.

Assays:
[1] = Inhibition of alpha-fucosidase; conditions: for pKi: read-out: Ki
[2] = Inhibition of alpha-glucosidase
[3] = Inhibition of beta-glucosidase
[4] = Inhibition of alpha-mannosidase
[5] = Inhibition of alpha-galactosidase
[6] = Inhibition of beta-galactosidase
[7] = Inhibition of beta-mannosidase

Structure (SMILES) | pKi [1] | Ki [2] | pIC50 [3] | pIC50 [5] | pIC50 [4] | other results
C[C@@H]1N[C@H](CO)[C@H](O)[C@@H]1O | 8.31 |  |  |  |  | 
C[C@H]1N[C@H](CO)[C@@H](O)[C@H]1O | 3.00 | Not Active | 4.00 | 2.70 |  | Ki [4]: Not Active
C[C@@H]1N[C@@H](CO)[C@H](O)[C@@H]1O | 7.10 |  |  |  |  | 
C[C@@H]1N[C@@H](CCO)[C@H](O)[C@@H]1O | 8.10 |  | < 3.00 | < 3.00 | < 3.00 | pIC50 [2]: < 4.00; pIC50 [6]: < 3.00; pIC50 [7]: < 3.00
C[C@H]1N[C@H](CO)[C@H](O)[C@@H]1O | 5.05 | Not Active | 2.92 |  |  | pKi ([4]; read-out: Ki): 4.28; pKi [5]: 5.30
OC[C@H]1NC[C@@H](O)[C@H]1O |  | Not Active | 3.46 | 6.70 | 4.85 | Ki [1]: Not Active; pIC50 [6]: 3.85
C[C@@H]1NC[C@H](O)[C@@H]1O | 7.30 |  |  |  |  | 
C[C@H]1N[C@@H](CO)[C@@H](O)[C@H]1O (racemic) | 7.82 |  | < 6.00 |  | < 3.00 | pIC50 [2]: < 4.00; pKi [6]: 4.28; pIC50 [7]: < 3.00; pKi [5]: 5.52
